# Test results: the supplement of paper PMC11061612
# Key:
# Carboplatin = compound: C1CC(C1)(C(=O)[O-])C(=O)[O-].N.N.[Pt+2] [Carboplatin]; settings: max 10 µM
# Procedure, shortened: (§1)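 Cancer cell lines in 1536-well plates (7.5 μl DMEM/F12 or RPMI, 10% FBS) were held 24 hours at 37°C and 5% CO2 and then dosed for 72 hours at a final DMSO of typically 0.2%. Viability was taken from CellTiter-Glo 2.0 luminescence, scaled between blank-well and DMSO-well means. Curves were fitted as two-parameter logistic models with a non-linear mixed effects model, from which the single-agent IC50 was taken.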
# AZD5363 = compound: C1CN(CCC1(C(=O)N[C@@H](CCO)C2=CC=C(C=C2)Cl)N)C3=NC=NC4=C3C=CN4 [AZD5363]; settings: max 10 µM
# Procedure, shortened: as §1
# AZD1775 = compound: C=CCn1c(=O)c2cnc(Nc3ccc(N4CCN(C)CC4)cc3)nc2n1-c1cccc(C(C)(C)O)n1 [AZD1775]; settings: max 3 µM
# Procedure, shortened: as §1
# Trametinib = compound: CC(=O)Nc1cccc(-n2c(=O)n(C3CC3)c(=O)c3c(Nc4ccc(I)cc4F)n(C)c(=O)c(C)c32)c1 [Trametinib]; settings: max 1 µM
# Procedure, shortened: as §1
# Paclitaxel = compound: CC(=O)O[C@H]1C(=O)[C@@]2(C)[C@H]([C@H](OC(=O)c3ccccc3)[C@]3(O)C[C@H](OC(=O)[C@H](O)[C@@H](NC(=O)c4ccccc4)c4ccccc4)C(C)=C1C3(C)C)[C@]1(OC(C)=O)CO[C@@H]1C[C@@H]2O [Paclitaxel]; settings: max 3 µM
# Procedure, shortened: as §1
# Palbociclib = compound: CC(=O)c1c(C)c2cnc(Nc3ccc(N4CCNCC4)cn3)nc2n(C2CCCC2)c1=O [Palbociclib]; settings: max 10 µM
# Procedure, shortened: as §1
# AZD1390 = compound: CC(C)n1c(=O)n(C)c2cnc3cc(F)c(-c4ccc(OCCCN5CCCCC5)nc4)cc3c21 [AZD1390]; settings: max 0.3 µM
# Procedure, shortened: as §1
# Venetoclax = compound: CC1(C)CCC(CN2CCN(c3ccc(C(=O)NS(=O)(=O)c4ccc(NCC5CCOCC5)c([N+](=O)[O-])c4)c(Oc4cnc5[nH]ccc5c4)c3)CC2)=C(c2ccc(Cl)cc2)C1 [Venetoclax]; settings: max 1 µM
# Procedure, shortened: as §1
# Dasatinib = compound: CC1=C(C(=CC=C1)Cl)NC(=O)C2=CN=C(S2)NC3=CC(=NC(=N3)C)N4CCN(CC4)CCO [Dasatinib]; settings: max 2 µM
# Procedure, shortened: as §1
# SG3199 = compound: CC1=CN2[C@@H](C1)C=NC3=CC(=C(C=C3C2=O)OC)OCCCCCOC4=C(C=C5C(=C4)N=C[C@@H]6CC(=CN6C5=O)C)OC [SG3199]; settings: max 0.001 µM
# Procedure, shortened: as §1
# AZD2811 = compound: CCN(CCO)CCCOc1ccc2c(Nc3cc(CC(=O)Nc4cccc(F)c4)[nH]n3)ncnc2c1 [AZD2811]; settings: max 1 µM
# Procedure, shortened: as §1
# SN-38 = compound: CCc1c2c(nc3ccc(O)cc13)-c1cc3c(c(=O)n1C2)COC(=O)[C@]3(O)CC [SN-38]; settings: max 0.3 µM
# Procedure, shortened: as §1
# AZD0156 = compound: CN(C)CCCOc1ccc(-c2ccc3ncc4c(c3c2)n(C2CCOCC2)c(=O)n4C)cn1 [AZD0156]; settings: max 3 µM
# Procedure, shortened: as §1
# AZD4320 = compound: CN(CC[C@H](CSC1=CC=CC=C1)NC2=C(C=C(C=C2)S(=O)(=O)NC(=O)C3=CC=C(C=C3)N4CCC(CC4)[C@H](C5=CC=CC=C5C6=CC=C(C=C6)Cl)O)S(=O)(=O)C(F)(F)F)CCO [AZD4320]; settings: max 1 µM
# Procedure, shortened: as §1
# Alisertib = compound: COc1cc(Nc2ncc3c(n2)-c2ccc(Cl)cc2C(c2c(F)cccc2OC)=NC3)ccc1C(=O)O [Alisertib]; settings: max 10 µM
# Procedure, shortened: as §1
# Etoposide = compound: COc1cc([C@@H]2c3cc4c(cc3[C@@H](O[C@@H]3O[C@@H]5CO[C@@H](C)O[C@H]5[C@H](O)[C@H]3O)[C@H]3COC(=O)[C@H]23)OCO4)cc(OC)c1O [Etoposide]; settings: max 10 µM
# Procedure, shortened: as §1
# Gefitinib = compound: COc1cc2ncnc(Nc3ccc(F)c(Cl)c3)c2cc1OCCCN1CCOCC1 [Gefitinib]; settings: max 10 µM
# Procedure, shortened: as §1
# Prexasertib = compound: COc1cccc(OCCCN)c1-c1cc(Nc2cnc(C#N)cn2)n[nH]1 [Prexasertib]; settings: max 1 µM
# Procedure, shortened: as §1
# Doxorubicin = compound: COc1cccc2c1C(=O)c1c(O)c3c(c(O)c1C2=O)C[C@@](O)(C(=O)CO)C[C@@H]3O[C@H]1C[C@H](N)[C@H](O)[C@H](C)O1 [Doxorubicin]; settings: max 1 µM
# Procedure, shortened: as §1
# AZD5153 = compound: COc1nnc2ccc(N3CCC(c4ccc(OCCN5CCN(C)C(=O)[C@H]5C)cc4)CC3)nn12 [AZD5153]; settings: max 1 µM
# Procedure, shortened: as §1
# Lapatinib = compound: CS(=O)(=O)CCNCc1ccc(-c2ccc3ncnc(Nc4ccc(OCc5cccc(F)c5)c(Cl)c4)c3c2)o1 [Lapatinib]; settings: max 10 µM
# Procedure, shortened: as §1
# AZD8186 = compound: C[C@@H](Nc1cc(F)cc(F)c1)c1cc(C(=O)N(C)C)cc2c(=O)cc(N3CCOCC3)oc12 [AZD8186]
# Procedure, shortened: as §1
# Crizotinib = compound: C[C@@H](Oc1cc(-c2cnn(C3CCNCC3)c2)cnc1N)c1c(Cl)ccc(F)c1Cl [Crizotinib]; settings: max 10 µM
# Procedure, shortened: as §1
# Savolitinib = compound: C[C@@H](c1ccc2nccn2c1)n1nnc2ncc(-c3cnn(C)c3)nc21 [Savolitinib]; settings: max 1 µM
# Procedure, shortened: as §1
# AZD6738 = compound: C[C@@H]1COCCN1C2=NC(=NC(=C2)C3(CC3)[S@](=N)(=O)C)C4=C5C=CNC5=NC=C4 [AZD6738]; settings: max 10 µM
# Procedure, shortened: as §1
# AZD5991 = compound: Cc1c2c(nn1C)CSCc1cc(n(C)n1)CSc1cc(c3ccccc3c1)OCCCc1c(C(=O)O)n(C)c3c-2c(Cl)ccc13 [AZD5991]; settings: max 1 µM
# Procedure, shortened: as §1
# AZD7648 = compound: Cc1cc2ncnn2cc1Nc1ncc2c(n1)n(C1CCOCC1)c(=O)n2C [AZD7648]; settings: max 10 µM
# Procedure, shortened: as §1
# Taselisib = compound: Cc1nc(-c2cn3c(n2)-c2ccc(-c4cnn(C(C)(C)C(N)=O)c4)cc2OCC3)n(C(C)C)n1 [Taselisib]; settings: max 10 µM
# Procedure, shortened: as §1
# Selumetinib = compound: Cn1cnc2c(F)c(Nc3ccc(Br)cc3Cl)c(C(=O)NOCCO)cc21 [Selumetinib]; settings: max 10 µM
# Procedure, shortened: as §1
# SRA737 = compound: N#Cc1cnc(Nc2cc(NC[C@H]3CNCCO3)c(C(F)(F)F)cn2)cn1 [SRA737]; settings: max 10 µM
# Procedure, shortened: as §1
# MK-2206 = compound: NC1(c2ccc(-c3nc4ccn5c(=O)[nH]nc5c4cc3-c3ccccc3)cc2)CCC1 [MK-2206]; settings: max 10 µM
# Procedure, shortened: as §1
# Gemcitabine = compound: Nc1ccn([C@@H]2O[C@H](CO)[C@@H](O)C2(F)F)c(=O)n1 [Gemcitabine]; settings: max 0.3 µM
# Procedure, shortened: as §1
# [1] = compound: O=C(Nc1ccc2[nH]nc(-c3ccncc3)c2c1)[C@@H]1CCN(CC(=O)N2CCN(c3ccc(-c4ncccn4)cc3)CC2)C1; settings: max 5 µM
# Procedure, shortened: as §1
# Olaparib = compound: O=C(c1cc(Cc2n[nH]c(=O)c3ccccc23)ccc1F)N1CCN(C(=O)C2CC2)CC1 [Olaparib]; settings: max 10 µM
# Procedure, shortened: as §1
# 5-Fluorouracil = compound: O=c1[nH]cc(F)c(=O)[nH]1 [5-Fluorouracil]; settings: max 20 µM
# Procedure, shortened: as §1
# Capivasertib = compound: C1CN(CCC1(C(=O)N[C@@H](CCO)C2=CC=C(C=C2)Cl)N)C3=NC=NC4=C3C=CN4 [Capivasertib]; settings: max 10 µM
# Procedure, shortened: as §1
Cell Line,"IC50, cell viability 72 h (Carboplatin)","IC50, cell viability 72 h (AZD5363)","IC50, cell viability 72 h (AZD1775)","IC50, cell viability 72 h (Trametinib)","IC50, cell viability 72 h (Paclitaxel)","IC50, cell viability 72 h (Palbociclib)","IC50, cell viability 72 h (AZD1390)","IC50, cell viability 72 h (Venetoclax)","IC50, cell viability 72 h (Dasatinib)","IC50, cell viability 72 h (SG3199)","IC50, cell viability 72 h (AZD2811)","IC50, cell viability 72 h (SN-38)","IC50, cell viability 72 h (AZD0156)","IC50, cell viability 72 h (AZD4320)","IC50, cell viability 72 h (Alisertib)","IC50, cell viability 72 h (Etoposide)","IC50, cell viability 72 h (Gefitinib)","IC50, cell viability 72 h (Prexasertib)","IC50, cell viability 72 h (Doxorubicin)","IC50, cell viability 72 h (AZD5153)","IC50, cell viability 72 h (Lapatinib)","IC50, cell viability 72 h (AZD8186; max 10 µM)","IC50, cell viability 72 h (Crizotinib)","IC50, cell viability 72 h (Savolitinib)","IC50, cell viability 72 h (AZD6738)","IC50, cell viability 72 h (AZD5991)","IC50, cell viability 72 h (AZD7648)","IC50, cell viability 72 h (Taselisib)","IC50, cell viability 72 h (Selumetinib)","IC50, cell viability 72 h (SRA737)","IC50, cell viability 72 h (MK-2206)","IC50, cell viability 72 h (Gemcitabine)","IC50, cell viability 72 h [1]","IC50, cell viability 72 h (Olaparib)","IC50, cell viability 72 h (5-Fluorouracil)","IC50, cell viability 72 h (Capivasertib)","IC50, cell viability 72 h (AZD8186; max 3 µM)"
CML-T1 (Chronic Myelogenous Leukemia),> 10000 nM,7380 nM,429 nM,262 nM,4.8 nM,222 nM,> 300 nM,585 nM,< 2 nM,> 1 nM,> 1000 nM,0.718 nM,> 3000 nM,54.1 nM,142 nM,92.6 nM,> 10000 nM,6.27 nM,62.8 nM,> 1000 nM,> 10000 nM,> 10000 nM,692 nM,> 1000 nM,1110 nM,> 1000 nM,> 10000 nM,> 10000 nM,4000 nM,588 nM,2050 nM,12.5 nM,> 5000 nM,5750 nM,19500 nM,,
HuO-3N1 (Osteosarcoma),,,> 3000 nM,> 1000 nM,,> 10000 nM,> 300 nM,> 1000 nM,305 nM,> 1 nM,> 1000 nM,275 nM,> 3000 nM,> 1000 nM,> 10000 nM,,> 10000 nM,529 nM,616 nM,> 1000 nM,> 10000 nM,,> 10000 nM,> 1000 nM,> 10000 nM,613 nM,> 10000 nM,6880 nM,> 10000 nM,,> 10000 nM,,,> 10000 nM,,> 10000 nM,> 3000 nM
NCI-H1623 (Lung Adenocarcinoma),,,> 3000 nM,229 nM,,> 10000 nM,> 300 nM,> 1000 nM,> 2000 nM,> 1 nM,> 1000 nM,7.47 nM,> 3000 nM,> 1000 nM,> 10000 nM,,714 nM,89.5 nM,> 1000 nM,> 1000 nM,902 nM,,> 10000 nM,> 1000 nM,8050 nM,163 nM,> 10000 nM,340 nM,> 10000 nM,,,,,> 10000 nM,,> 10000 nM,> 3000 nM
OCI-AML5 (Acute Myeloid Leukemia),,,543 nM,28.9 nM,,6640 nM,> 300 nM,50.6 nM,> 2000 nM,> 1 nM,18.6 nM,9.54 nM,> 3000 nM,42.7 nM,1130 nM,,> 10000 nM,13.4 nM,658 nM,323 nM,> 10000 nM,,2410 nM,> 1000 nM,2240 nM,58.8 nM,> 10000 nM,2190 nM,2120 nM,,,,,> 10000 nM,,> 10000 nM,> 3000 nM
JHH-1 (Hepatocellular Carcinoma),,,1270 nM,410 nM,,> 10000 nM,> 300 nM,> 1000 nM,> 2000 nM,> 1 nM,> 1000 nM,> 300 nM,> 3000 nM,> 1000 nM,> 10000 nM,,> 10000 nM,259 nM,> 1000 nM,> 1000 nM,> 10000 nM,,> 10000 nM,> 1000 nM,> 10000 nM,> 1000 nM,> 10000 nM,> 10000 nM,> 10000 nM,,,,,> 10000 nM,,> 10000 nM,> 3000 nM
NCI-H1155 (Non-Small Cell Lung Carcinoma),,,> 3000 nM,> 1000 nM,,> 10000 nM,> 300 nM,> 1000 nM,> 2000 nM,> 1 nM,> 1000 nM,4.68 nM,> 3000 nM,> 1000 nM,9880 nM,,> 10000 nM,49.1 nM,617 nM,541 nM,> 10000 nM,,> 10000 nM,> 1000 nM,5970 nM,> 1000 nM,> 10000 nM,> 10000 nM,> 10000 nM,,,,,> 10000 nM,,8340 nM,> 3000 nM
SJRH30 (Rhabdomyosarcoma),,,317 nM,> 1000 nM,,> 10000 nM,> 300 nM,> 1000 nM,> 2000 nM,> 1 nM,> 1000 nM,> 300 nM,> 3000 nM,> 1000 nM,9410 nM,,> 10000 nM,15.9 nM,967 nM,> 1000 nM,> 10000 nM,,5220 nM,> 1000 nM,3800 nM,980 nM,> 10000 nM,1470 nM,> 10000 nM,,> 10000 nM,,,> 10000 nM,,4700 nM,> 3000 nM
